Measurements published in patent publication US8889662B2, “Method to alter sex ratios in avian offspring” (University of Georgia Research Foundation, Inc., priority 2009, dated 2014).
“And” between values parts separate entries of the source, which are not always exact repeats. Equal entries are not always repeated.

Legend:
avian species = details: long-term silastic implants, literature; cited from earlier work
[1] = system: zebra finch (Taeniopygia guttata); assay: Example 2: disruption of ovulation, oviposition and embryo development after injection, zebra finches; format: in vivo; details: 20 ug injection, relative to control and uninjected groups
Method: Zebra finch (Taeniopygia guttata) pairs obtained from a breeding colony maintained at The University of Georgia were housed in individual cages and provided feed and water ad libidumn. Birds were kept under a 14 hour (h) light (L):10 h dark (D) light schedule. Egg-laying was monitored daily and eggs marked to record sequence order. Females were injected intraperitoneally after the first or second egg of the clutch was laid with one of three treatments: 20 μg of CORT dissolved in 50 μl peanut oil and 10% ethanol (CORT), 20 μg of progesterone dissolved in […] and 10% ethanol (P), or 50 μl of control peanut oil (C). A fourth set of females received no injection treatment (UN). […] The follicle ovulating 5 hours after injection, was laid approximately 36 hours after injection (FIG. 3). Ovulating follicles exposed to treatments were laid as the 3rd or 4th egg in the sequence (3rd egg if treatment was administered on the day the 1st egg was laid and the 4th egg in the sequence if treatment was administered on the day the 2nd egg was laid). Eggs were allowed to incubate in the nest for 8-12 days prior to collection to allow sufficient embryonic development for DNA extraction and molecular sexing analyses. Occasionally these treatments disrupted the oviposition immediately following the injection. Females that delayed oviposition after treatment were excluded from analysis because it was not possible to determine whether the egg collected the following day was from the ovulation event that occurred immediately following injection or from a delayed oviposition of the follicle ovulated the day prior to injection. Females that delayed oviposition were allowed to complete the clutch after which the treatment was repeated during the next clutch. […] Only 1/10 females treated with progesterone laid successfully. For this reason, progesterone treatments were eliminated from further analyses.

[2] = Example 2: plasma corticosterone radioimmunoassay after injection, zebra finches; format: in vivo, Zebra finch (Taeniopygia guttata); details: zebra finch, 20 ug
Method: Radioimmunoassays. […] Different individuals were sampled at each time point. Blood samples were also taken from a set of unmanipulated females at time intervals 20 minutes and 1 hour, during the same bleeding session. To ensure that measurements reflect corticosterone elevations associated with the injection and not the stress of handling, samples were taken from the brachial vein within 3 minutes of capture (Romero and Romero, 2002, Condor; 104:129-135; Wingfield et al., 1982, Condor; 84:399-409). Injections and sampling began at 2300 hours (5 hors prior to ovulation) to accurately measure the blood plasma levels of corticosterone and changes in corticosterone levels in response to injections during the approximate period that meiosis occurs. Based on studies done in other avian species, it is likely that the time period from injection to blood sampling is just prior to the natural diurnal CORT peak that occurs at the end of the dark period (Westerhof et al., 1994, Avian Diseases; 38:428-434; de Jong et al., 2001, Physiology and Behavior; 74:299-304). The procedures for extraction and radioimmunoassay of corticosterone from plasma were followed as described by (Wingfield and Farner, 1975, Steroids; 26:311-327) and (Mendonça et al., 1996, Horm Behav; 30:153-161) using a rabbit derived anti-corticosterone antibody (MP Biomedicals, Solon, Ohio USA, cat #07-120016).
Statistical Analysis. Plasma CORT concentrations were analyzed among treatment groups and time points using a two-way ANOVA, and individual treatment differences were analyzed using Fisher's PLSD. All hormone data were non-normally distributed and were thus log transformed for statistical analyses.

[3] = Example 3: plasma corticosterone radioimmunoassay after injection, laying hens; format: in vivo, chicken; details: 1.5 mg
Method: Radioimmunoassays. Blood samples were collected from a separate set of hens to verify that CORT treatment elevated plasma corticosterone during the completion of meiotic segregation. Relative to the injections described above (5 h prior to ovulation), blood samples were collected from half of the CORT, CONT, and UN-treated hens at 1 h and the other half at 4 h (FIG. 6). Blood samples were collected from the brachial vein within 3 min of initial handling to avoid variation due to handling stress (Romero and Reed, 2005, Comp Biochem Physiol A; 140:73-79). Extraction and radioimmunoassay of plasma corticosterone were completed as described by Mendonça et al. (Mendonça et al., 1996, Horm Behav; 30:153-161). Twenty-four blood samples were analyzed from UN-treated hens (12 from each time period), 12 from CONT-treated hens (5 and 7 at 1 h and 4 h, respectively), and 12 from CORT-treated hens (6 from each time period).
Statistical Analysis. […] All hormone data were non-normally distributed and were log-transformed for statistical analysis. Plasma corticosterone concentrations were analyzed among treatment groups and time points using an ANOVA and differences among individual treatment groups were analyzed using Fisher's PLSD. Statistical analyses were carried out using Statview software (SAS Institute, Cary, N.C. USA).

[4] = system: Hyline W-36 and Brown layer hens; assay: Example 3: offspring sex ratio after acute corticosterone injection five hours before ovulation, laying hens; format: in vivo, chicken
Method: Hyline W-36 and Brown layer hens were housed in individual layer cages in a single room, had ad libitum access to food and water, and maintained on a 14 h L:10 h D light schedule. Hens were artificially inseminated biweekly with pooled semen from 8 roosters to ensure egg fertilization. Hens were monitored throughout the day for egg-laying and eggs were collected manually every 2 h during peak-laying hours. Previous studies in laying hens have shown that ovulation occurs within 30 minutes of oviposition (Johnson, A. L. Reproduction in the female, in Sturkie's Avian Physiology. G. C. Whittow, Editor. 2000, Academic Press: New York, N.Y. p. 569-596); therefore, egg laying patterns can be used to predict the timing of ovulation.
Injection treatments were administered to hens subcutaneously in the back of the neck five hours prior to the predicted time of ovulation with one of the following treatments: 0.5 ml of control peanut oil (CONT) or 1.5 mg corticosterone dissolved in 0.5 ml of peanut oil (CORT). Ovulated follicles took 24 h to pass through the remainder of the reproductive tract and were collected at oviposition (FIG. 6). […]
Statistical Analysis. […] Plasma corticosterone concentrations were analyzed among treatment groups and time points using an ANOVA and differences among individual treatment groups were analyzed using Fisher's PLSD. […]

C[C@]12C[C@H](O)[C@H]3[C@@H](CCC4=CC(=O)CC[C@@]43C)[C@@H]1CC[C@@H]2C(=O)CO [corticosterone]
offspring sex ratio with long-term CORT elevation (avian species): sex ratios were skewed significantly towards females
effect on oviposition, ovulation or visible development ([1]; listed as CORT): not more likely to occur
effect on oviposition, ovulation or visible development ([1]; listed as Corticosterone): did not adversely affect oviposition or ovulation
plasma corticosterone levels compared to non-injected birds ([2]; 20 minutes after injection, p<0.0001): raised corticosterone levels significantly
levels of corticosterone post-injection ([2]; 20 minutes, 1 hour and 2.5 hours post-injection (summary statement)): significantly elevated levels of corticosterone
plasma corticosterone levels compared to non-injected birds ([2]; 1 hour post-injection, p=0.0002): remained significantly elevated
plasma corticosterone levels, CORT treated versus control treated females ([2]; 2.5 hours after injection, p=0.0789): similar
plasma corticosterone levels compared to unmanipulated females ([2]; 2.5 hr post-injection versus unmanipulated birds sampled at 1 h, p=0.0401): significantly higher corticosterone levels
plasma corticosterone levels (FIG. 4 legend) ([2]; min and one hour after injection): significantly raised plasma corticosterone levels
plasma corticosterone levels compared to CONT and UN treated hens ([3]; 1 h after injection, p<0.0001 in both cases): significantly raised corticosterone levels
plasma corticosterone concentrations ([3]; four hours post-injection, CORT-UN p<0.01, CORT-CONT p=0.07): only significantly elevated in CORT-treated hens
males produced (offspring sex ratio) ([4]; 1.5 mg in 0.5 ml peanut oil subcutaneously five hours before ovulation, p=0.01 vs all hens the day before, p=0.72 vs control injection): ~83% and 82.6%
males produced after treatment compared to before treatment, same hens ([4]; 1.5 mg, target versus pre-target eggs, p=0.02): produced significantly more males
